Test results as given in US4847254A, “CNS affecting 5-oxy-3-aminomethyl-dihydro-benzofurans and benzothiophenes” (H. Lundbeck A/S, priority 1987, dated 1989).

What was measured:
DA-autoreceptors = assay: Inhibition of spontaneous locomotor activity (motility inhibition) in rats; assay type: in vivo, rat (Wistar); settings: doses calculated as the free amine
DA receptors = assay: DA stimulating properties / effect at pre- and postsynaptic DA receptors (general statement); assay type: in vivo; settings: statement in words
DA-receptor = assay: Contralateral circling in rats with unilateral 6-hydroxy-DA (6-OHDA) lesions; assay type: in vivo, rat (Wistar); settings: 6-OHDA-lesioned rats, doses calculated as the free amine
Experimental: Furthermore, the potency of the drug to induce contralateral circling behaviour in 6-hydroxy-DA-lesioned rats was determined. The specificity of this receptor resembles that of the […] DA receptors mediating motility inhibition.
The experiments were made according to published methods, using rats of the Wistar strain.
Therefore, also the ability of a test compound to induce contralateral circling in rats with unilateral 6-hydroxy-DA lesions was evaluated (loc cit.).

[1] = tested on: postsynaptic DA-receptors; assay: Reversal of locomotor depression (hypomotility) in reserpine plus alpha-methyl-p-tyrosine pretreated rats; assay type: in vivo, rat (Wistar)
[2] = tested on: postsynaptic DA-receptors; settings: reversal of locomotor depression in DA-depleted rats; statement in words; cited from earlier work

| SMILES | Motility Inh. rats (sc) ED50 (DA-autoreceptors) [µmol/kg] | DA stimulating properties (DA receptors) | 6-OHDA Contr. Circle. rats (sc) ED50 (DA-receptor) [µmol/kg] | Reserpin α-Mt Rev. rats (sc) ED50 [1] [µmol/kg] | effect in reserpine plus alpha-methyl-p-tyrosine model [2] |
| --- | --- | --- | --- | --- | --- |
| CCCN(CCC)CC1CCc2ccccc21 (stereo not shown) [Lu 21-091, N,N-Dipropyl-1-indanmethylamine] | > 62 | without any DA stimulating properties | > 62 | – | – |
| CCCN1CCC[C@@H](c2cccc(O)c2)C1 [(--)-3-PPP, reference compound] | 4.2 to 11 | – | 0.77 | > 67 | without effect |
